Experimental data from PubChem BioAssay (NCI).
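Tested at 5 concentrations; 48 h exposure; 96-well plates; endpoints linearly interpolated, else capped at highest concentration. GI50 marks 50% less growth. The concentration for full growth arrest is given as TGI.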

What was measured:
Test in all cases: inhibition of tumour cell growth, NCI panel, 48 h
[1] = tested on: HS 578T breast
[2] = tested on: NCI-H460 lung
[3] = tested on: NCI-H522 lung
[4] = tested on: SN12C renal
[5] = tested on: SF-295 CNS
[6] = tested on: MCF7 breast
[7] = tested on: ACHN renal
[8] = tested on: TK-10 renal
[9] = tested on: K-562 leukemia
[10] = tested on: RXF 393 renal

Row | SMILES | GI50 [1] [µM] | TGI [1] [µM] | GI50 [2] [µM] | TGI [2] [µM] | GI50 [3] [µM] | TGI [3] [µM] | GI50 [4] [µM] | TGI [4] [µM] | GI50 [5] [µM] | TGI [5] [µM] | GI50 [6] [µM] | TGI [6] [µM] | GI50 [7] [µM] | TGI [7] [µM] | GI50 [8] [µM] | TGI [8] [µM] | GI50 [9] [µM] | TGI [9] [µM] | GI50 [10] [µM] | TGI [10] [µM]
1 | C[C@]12CCCN1CC1=NNC(=O)c3cc(F)cc4[nH]c2c1c34 | 11.8 | 62.5 | 11.5 | > 100 | 21.9 | 63.6 | 14.3 | 79.1 | 16.1 | 51.1 | 11.6 | > 100 | 21.1 | > 100 | 22.6 | > 100 |  |  |  | 
2 | CC[O-].CC[O-].COc1ccc(C(=O)[CH-]C(C)=O)cc1OC.COc1ccc(C(=O)[CH-]C(C)=O)cc1OC.[Ti+4] |  |  | 55.8 | > 100 |  |  | > 100 | > 100 | 33.9 | > 100 |  |  | 35.9 | > 100 |  |  | > 100 | > 100 | 34.1 | 99.7
3 | Cn1cnc([N+](=O)[O-])c1Sc1nc2ccccc2o1 |  |  |  | > 71.6 |  | 4.42 |  | 18.5 |  | 74.9 |  |  |  | 24.9 |  | 22.9 |  | 11.3 |  | 22.1
4 | CS(=O)(=O)c1ccc2c(c1)C(=O)c1c-2n(CCCBr)c(=O)c2cc([N+](=O)[O-])ccc12 | 4.98 | 44.1 | 0.718 | > 100 | 4.87 | > 100 | 6.88 | > 100 | 2.07 | 33.5 | 0.992 | > 100 | 4.98 | > 100 | 40.2 | > 100 | 5.15 | > 100 |  | 
5 | Cc1cc(Cl)ccc1NC(=O)CC1SC(=NC(=O)c2ccccc2Cl)NC1=O (stereo unspecified) |  |  |  | > 100 |  | 29 |  | 33.5 |  | > 100 |  |  |  | 30.8 |  |  |  | 47.6 |  | 35.1
6 | O=C(Nc1ccccc1)n1cc(-c2ccccn2)c(N2CCOCC2)n1 |  |  |  | > 100 |  | 6.58 |  | > 100 |  | 28.2 |  |  |  | > 100 |  | > 100 |  | > 100 |  | 
7 | N#CC(C#N)=Cc1ccc(C(O)P(=O)(O)O)cc1 (stereo unspecified) |  |  |  | > 100 |  | > 100 |  | > 100 |  | > 100 |  |  |  | > 100 |  | > 100 |  | > 100 |  | 
8 | CCCCOC(=O)/C=C\C(=O)NC(N)=O | 23.5 | > 100 | 31.9 | > 100 |  |  | 41.5 | > 100 | 47.2 | > 100 | 13 | 76.7 | 15.3 | 30.3 |  |  | 31.3 | > 100 | 12.7 | 27.1
9 | CC(=O)n1nnc2ccc([N+](=O)[O-])cc21 |  |  |  | > 100 |  | > 100 |  | > 100 |  | > 100 |  |  |  | > 100 |  | > 100 |  | > 100 |  | > 100
10 | Cn1nc(-c2ccccc2)c2c(/C=C/c3ccc(Cl)cc3)onc2c1=O |  |  |  | > 100 |  | 45.5 |  | > 100 |  | 68.8 |  |  |  | > 100 |  | > 100 |  | > 100 |  | > 100
11 | COC(=O)C(=NNc1ccccc1[N+](=O)[O-])C(=O)OC |  |  |  | > 100 |  | > 100 |  | > 100 |  | > 100 |  |  |  | > 100 |  | > 100 |  | > 100 |  | > 100
12 | COc1ccc(NC(=S)C#N)cc1 |  |  |  |  |  |  |  | > 100 |  | > 100 |  | > 100 |  | > 100 |  | > 100 |  | > 100 |  | > 100
13 | O=C1Nc2ccc(O)cc2/C1=C\c1ccncc1 | 29.2 | 97.3 | 12.7 | 42.9 | 11.5 | 38.2 | 16.2 | 44.3 | 25.9 | 77.8 | 4.18 | 38.2 | 11.7 | 27.9 | 18.6 | 39.8 | 17.7 | 56.2 |  | 
14 | CCOC(=O)NC(=O)c1cn(CCCCCCCCCCC(=O)NCCCN2CCN(CCCNC(=O)CCCCCCCCCCn3cc(C(=O)NC(=O)OCC)c(=O)[nH]c3=O)CC2)c(=O)[nH]c1=O |  |  |  | > 100 |  | > 10 |  | > 100 |  | > 100 |  |  |  | > 100 |  | > 100 |  | > 100 |  | 
15 | N#CC(C(=O)CCC(=O)Nc1ccc(Cl)cc1)c1ccc(Cl)cc1 (stereo unspecified) |  |  |  | > 100 |  | > 100 |  | > 100 |  | > 100 |  |  |  | > 100 |  | > 100 |  | > 100 |  | 
16 | Cc1cc2nc3c(=O)[nH]c(=O)nc-3n(CC(O)C(O)C(O)CO)c2cc1N (stereo unspecified) |  |  |  | > 100 |  |  |  | > 100 |  | > 100 |  |  |  | > 100 |  | > 100 |  | > 100 |  | 
17 | c1ccc(COCC[P+](c2ccccc2)(c2ccccc2)c2ccccc2)cc1 | 2.81 | 17.9 | 1.5 | 10.7 | 0.467 | 4.17 | 2.3 | 11.3 | 1.39 | 6.64 | 0.564 | 7.27 | 4.56 | 23.5 |  |  | 0.383 | 16 |  | 
18 | C/C=C(\C)c1cc(=O)c2c(C)cc3c(c2o1)C(OC)(OC(C)=O)c1c(O)c(C2CC(C)(N(C)C)C(OC(C)=O)C(C)O2)cc(C2CC(N(C)C)C(OC(C)=O)C(C)O2)c1C3=O (stereo unspecified) |  | 7.63 |  |  |  |  |  | 5.23 |  | 14.6 |  | > 100 |  | 1.52 |  | > 100 |  |  |  | 
19 | N#CCCN(C1=NN(C(=O)CC(=O)Nc2ccc(Cl)cc2)C(c2ccccc2)C1)c1ccc(Cl)cc1 (stereo unspecified) |  |  |  | > 100 |  | > 100 |  | > 100 |  | > 100 |  |  |  | > 100 |  | > 100 |  | > 100 |  | > 100
20 | O=C1c2cccc([N+](=O)[O-])c2C(=O)c2nccnc21 |  |  |  | 2.79 |  | 2.75 |  | 3.64 |  | 3.5 |  |  |  | 15.1 |  | 3.85 |  | 4.17 |  | 3.71
21 | O=C(O)CCC(=O)Oc1ccc(O)c2c1CCCC2=O |  |  |  | > 100 |  | > 100 |  | > 100 |  | > 100 |  |  |  | > 100 |  | > 100 |  | > 100 |  | > 100
